These results are taken from US20260034092A1, “BIOCIDAL COMPOSITION” (priority 2022, published 2026).

In test [1] the test system is bacterial Biofilm (Listeria monocytogenes ATCC 35152, Clostridium sporogenes ATCC 19404, Candida albicans ATCC 26555 and Escherichia col). The test is described as follows: MIC test against bacterial Biofilm. The test is classed as cell-based. As to conditions: incubated 48 h at 37° C.
Test [2] concerns Pseudomonas aeruginosa (ATCC 15442). The test is described as follows: Minimum Inhibitory Concentration (MIC) test. As to conditions: incubated 48 h at 37° C.

In the case of `Cc1ccc(C(C)C)cc1O` [Carvacrol, 5-Isopropil-2-metilfenol], the “Minimum inhibitory concentration (MIC)” value is on record as 1.01% in test [1] and 0.89% in test [2].
The corresponding values for `CC12CCC(CC1)C(C)(C)O2` [Eucalyptol, 1,3,3-Trimethyl-2-oxabicyclo[2.2.2]octane] are 1.21% and 1.09%.
The corresponding values for `CC1CCC(C(C)C)C(O)C1` (stereo not shown) [Menthol, 5-Methyl-2-(propan-2-yl)cyclohexan-1-ol] are 5.98% and 5.32%.
Turning to `CC1=CCC(O)(C(C)C)CC1` (stereo not shown) [Terpinen-4-ol, 4-Methyl-1-(propan-2-yl)cyclohex-3-en-1-ol], the entries for the “Minimum inhibitory concentration (MIC)” value in test [1] and in test [2] were 1.96% and 1.64%, respectively.
For `Cc1ccc(C(C)C)c(O)c1` [Thymol, 5-Methyl-2-(propan-2-yl) phenol] the same measures were 2.29% and 2.11%.
